These results are taken from patent US10550073B2, “Benzamide derivative” (CSPC ZHONGQI PHARMACEUTICAL TECHNOLOGY (SHIJIAZHUANG) CO., …, priority 2015, dated 2020).

Data set [1] has as its system TNF-α. As to the kind of experiment: In vitro cell experiment: LPS-stimulated TNF-α release in THP-1 cells (ELISA). It is filed as cell-based. To be noted: Homo sapiens; TNF-α in supernatant of THP-1 cells, compound 2 h then LPS 10 μg/ml 2 h. The source says: I. In Vitro Cell Experiment
Cells: human monocytic leukemia THP-1 cells (obtained from the Shanghai Cell Bank of Chinese Academy of Sciences).
Lipopolysaccharides: from Escherichia coli O55: B5, L2880 (Sigma).
Kit: Human TNF-α Elisa MAX Deluxe Set, 430206 (Biolegend)
On the technique in general: In an ELISA, binding on a coated surface is turned into a signal by an enzyme label.

Data set [2] can be described thus: Pharmacokinetics experiment, oral administration to SD rats. The data set is classed as in vivo. To be noted: Sprague-Dawley (SD), rat, plasma. Here is the method: IV. Pharmacokinetics Experiment
Experimental Method: SD rats were orally administrated the compounds and the blood samples were taken from the eye orbit of the rat sat different time intervals after administration (0.25, 0.5, 1, 2, 4, 6, 8, 24, 48 h). The collected whole blood was anticoagulant by EDTA (Ethylene Diamine Tetraacetic Acid Sodium) and 3000 g of samples were centrifugated to obtain the rats' plasma samples, methanol or ethanol was used to precipitate proteins, the drug concentration of the rats' plasma samples was determined, the drug concentration-time curve was plotted to calculate the pharmacokinetic parameters. The pharmacokinetic behavior in rats after administration was described by non-compartmental models statistical moment parameter.
The pharmacokinetic experiments were carried out for the compounds.

In data set [3] the target is CYP450, 2C9 enzymes (Homo sapiens (Human), UniProt P11712). In words: CYP450 enzyme inhibition test in human liver microsome. The conditions noted are these: CYP450 2C9, LC-MS/MS. It is filed as in vitro ADME. (Microsomes from liver hold many membrane-bound enzymes, among them those of drug oxidation.)
Chain of CYP450, 2C9 enzymes (P11712 whole entry): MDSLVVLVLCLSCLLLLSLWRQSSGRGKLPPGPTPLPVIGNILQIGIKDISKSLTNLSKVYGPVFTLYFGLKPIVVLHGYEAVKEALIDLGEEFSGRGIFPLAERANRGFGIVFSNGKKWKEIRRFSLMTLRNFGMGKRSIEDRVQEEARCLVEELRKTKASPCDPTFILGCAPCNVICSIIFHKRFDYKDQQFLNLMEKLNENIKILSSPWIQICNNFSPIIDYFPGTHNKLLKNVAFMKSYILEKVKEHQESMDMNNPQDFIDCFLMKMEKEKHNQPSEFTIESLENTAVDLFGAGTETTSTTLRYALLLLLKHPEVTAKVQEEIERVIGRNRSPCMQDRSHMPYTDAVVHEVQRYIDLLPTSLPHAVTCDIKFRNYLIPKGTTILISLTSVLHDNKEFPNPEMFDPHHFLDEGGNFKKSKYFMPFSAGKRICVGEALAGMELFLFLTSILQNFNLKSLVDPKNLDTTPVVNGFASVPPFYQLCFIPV
The target in data set [4] is p38a (Homo sapiens (Human), UniProt Q16539). In words: Assay of p38 kinase activity (fluorescence, peptide substrate). The data set is classed as biochemical. The conditions noted are these: 40 nM p38a, 100 μM ATP, 90 minutes. The method, then: II. Assay of p38 Kinase Activity
Chain of p38a (Q16539 whole entry): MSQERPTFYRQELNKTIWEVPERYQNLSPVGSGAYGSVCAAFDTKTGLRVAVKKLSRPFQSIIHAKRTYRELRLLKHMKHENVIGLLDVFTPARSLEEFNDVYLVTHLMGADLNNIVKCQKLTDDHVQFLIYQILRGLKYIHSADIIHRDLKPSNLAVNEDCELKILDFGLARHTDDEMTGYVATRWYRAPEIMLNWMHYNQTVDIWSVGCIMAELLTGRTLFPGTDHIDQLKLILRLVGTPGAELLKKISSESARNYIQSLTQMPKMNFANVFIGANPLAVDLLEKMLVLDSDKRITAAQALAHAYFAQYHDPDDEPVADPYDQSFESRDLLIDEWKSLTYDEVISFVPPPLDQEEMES
Experimental Method: 40 nM p38a was added into a reaction buffer, which include 20 mM HEPES (4-hydroxyethylpiperazine ethanesulfonic acid), 5 mM MgCl2 and 1 mM DTT (dithiothreitol) at pH 7.4. 40 μM phosphorylated peptide substrate was added, followed by different concentrations of drugs and 100 μM ATP (adenosine triphosphate), and reacted for 90 minutes in dark. […] The IC50 values of the compounds were obtained according to the fluorescence values.

Where only a bound is given, the exact number is not on record here.

Regarding `Cc1c(F)cc(C(=O)NC2CC2)cc1-c1ccc(C(=O)NCC(C)(C)C)cn1` [Comparative example, 6-(5-(cyclopropylcarbamoyl)-3-fluoro-2-methylphenyl)-N-neopentylnicotinamide, reference compound], in data set [1], the IC50 (commonly the concentration that gives 50% inhibition) lay in the range of 10 to 20 nM. Besides, the AUC(0-t) – broadly, exposure summed from dosing to a finite time, without extrapolation to infinity – in data set [2] was 9630 ng·h/mL.

Regarding `Cc1cc(-c2cc(C(=O)NC3CC3)cc(F)c2C)ccc1C(=O)NCC(C)C` [Example 44, N^3-cyclopropyl-5-fluoro-N^4′-isobutyl-3′,6-dimethyl-[1,1′-biphenyl]-3,4′-dicarboxamide], the IC50 in data set [1] is < 5 nM; in data set [3], > 50000 nM; in data set [4], 5 to 10 nM.

As for `Cc1c(F)cc(C(=O)NC2CC2)cc1-c1ccc(C(=O)NCC(C)C)nn1` [Example 57, 6-(5-(cyclopropylcarbamoyl)-3-fluoro-2-methylphenyl)-N-isobutylpyridazin-3-carboxamide], the IC50 is < 5 nM in data set [1], > 50000 nM in data set [3] and < 5 nM in data set [4]. The same compound registered an AUC(0-t) in data set [2] of 22100 ng·h/mL.

Regarding `CCC(C)NC(=O)c1ccc(-c2cc(C(=O)NC3CC3)cc(F)c2C)nn1` (centres unmarked) [Example 58, 6-(5-(cyclopropylcarbamoyl)-3-fluoro-2-methylphenyl)-N-(sec-butyl)pyridazin-3-carboxamide], the IC50 in data set [1] was < 5 nM; in data set [3], > 50000 nM; in data set [4] it was < 5 nM.

As for `Cc1c(F)cc(C(=O)NC2CC2)cc1-c1ccc(C(=O)NCC(C)(C)C)nn1` [Example 59, 6-(5-(cyclopropylcarbamoyl)-3-fluoro-2-methylphenyl)-N-neopentylpyridazin-3-carboxamide], the IC50 was < 5 nM in data set [1], > 50000 nM in data set [3] and < 5 nM in data set [4]. Also, the exposure AUC(0-t) in data set [2] stood at 11300 ng·h/mL.

On to `Cc1c(F)cc(C(=O)NC2CC2)cc1-c1ccc(C(=O)NCC2CC2)nn1` [Example 61, 6-(5-(cyclopropylcarbamoyl)-3-fluoro-2-methylphenyl)-N-(cyclopropylmethyl) pyridazin-3-carboxamide], for which the figures for the IC50 in data set [1], in data set [3] and in data set [4] were < 5 nM, > 50000 nM and < 5 nM, respectively. This compound also showed an AUC(0-t) in data set [2] of 12200 ng·h/mL.
